# Data published in ChEMBL document CHEMBL1135008, “17S,20S-Methanofusidic acid, a new potent semi-synthetic fusidane antibiotic” (2002).
# Assays:
# Assay type in all cases: functional
# Cutibacterium acnes = assay: Compound was tested for its antibacterial activity against Propionibacterium acnes NCTC 737
# Streptococcus sp. [1] = assay: Compound was tested for its antibacterial activity against Streptococcus sp. EF 6
# Micrococcus luteus = assay: Compound was tested for its antibacterial activity against Micrococcus luteus ATCC 9341
# Clostridium perfringens = assay: Compound was tested for its antibacterial activity against Clostridium perfringens KT 13
# Enterococcus faecium = assay: Compound was tested for its antibacterial activity against Enterococcus faecium EI 119, penicillin resistant
# [2] = tested on: Geobacillus stearothermophilus; assay: Compound was tested for its antibacterial activity against Bacillus stearothermophilus KG 5
# Streptococcus sp. [3] = assay: Compound was tested for its antibacterial activity against Streptococcus sp. EG 14
# Staphylococcus aureus [4] = assay: Compound was tested for its antibacterial activity against Staphylococcus aureus CJ 232 (MRSA)
# [5] = tested on: Lactiplantibacillus plantarum; assay: Compound was tested for its antibacterial activity against Lactobacillus plantarum ATCC 8014
# Streptococcus pyogenes = assay: Compound was tested for its antibacterial activity against Streptococcus pyogenes EC
# Pseudomonas aeruginosa = assay: Compound was tested for its antibacterial activity against Pseudomonas aeruginosa ATCC 10145
# Staphylococcus aureus [6] = assay: Compound was tested for its antibacterial activity against Staphylococcus aureus ATCC 2977
# Bacillus cereus = assay: Compound was tested for its antibacterial activity against Bacillus cereus ATCC 10876
# Enterococcus faecalis = assay: Compound was tested for its antibacterial activity against Enterococcus faecalis ATCC 10541
# [7] = tested on: Staphylococcus epidermidis; assay: Compound was tested for its antibacterial activity against Staphylococcus epidermidis ATCC 12228
# Corynebacterium xerosis = assay: Compound was tested for its antibacterial activity against Corynebacterium xerosis NCTC 9755
# Escherichia coli = assay: Compound was tested for its antibacterial activity against Escherichia coli HA 44
# [8] = tested on: Staphylococcus epidermidis; assay: Antimicrobial evaluation revealed potent activity against several Gram positive bacteria (Staphylococcus epidermidis ATCC 12228)
Compound,MIC (Cutibacterium acnes) [µg/mL],MIC (Streptococcus sp. [1]) [µg/mL],MIC (Micrococcus luteus) [µg/mL],MIC (Clostridium perfringens) [µg/mL],MIC (Enterococcus faecium) [µg/mL],MIC [2] [µg/mL],MIC (Streptococcus sp. [3]) [µg/mL],MIC (Staphylococcus aureus [4]) [µg/mL],MIC [5] [µg/mL],MIC (Streptococcus pyogenes) [µg/mL],MIC (Pseudomonas aeruginosa) [µg/mL],MIC (Staphylococcus aureus [6]) [ng/mL],MIC (Bacillus cereus) [µg/mL],MIC (Enterococcus faecalis) [µg/mL],MIC [7] [ng/mL],MIC (Corynebacterium xerosis) [µg/mL],MIC (Escherichia coli) [µg/mL],MIC [8] [ng/mL]
CC(=O)O[C@H]1C[C@@]2(C)C(C[C@@H](O)[C@H]3[C@@]4(C)CC[C@@H](O)[C@@H](C)[C@@H]4CC[C@@]32C)/C1=C(\CCC=C(C)C)C(=O)O (some centres undefined),0.02,4,1,16,0.02,0.03,16,0.015,4,4,1,6,4,4,1,0.04,> 125,
CC(=O)O[C@H]1C[C@@]2(C)C(C[C@@H](O)[C@H]3[C@@]4(C)CC[C@@H](O)[C@@H](C)C4CC[C@@]32C)[C@]12C[C@]2(CCC=C(C)C)C(=O)O (some centres undefined),0.02,16,0.25,16,0.02,0.03,63,0.014,63,16,1,3,1,16,,0.04,> 125,1
